Marks after values point to notes of the source that are not given here.
Columns and labels:
Format in all cases: cell-based
[1] = system: grazers; assay: Example Two: ozone skid tests on outdoor ponds, ozone disinfection of grazers
Method: (§1) In the following examples, Nannochloropsis was grown in outdoor, open, three-square meter ponds in Vero Beach, Florida. The climate in Vero Beach is semitropical, with mild, cool winters and hot, humid summers. It is a challenging climate for keeping outdoor algal cultures stable and productive. The overnight warmth encourages predation by protozoa, rotifers, and crustaceans. The humidity allows the airborne transport of competing algae, and thus increases the rate of invasion.
(§2) An ozone skid was assembled on-site utilizing a dry air feed ozone generator capable of producing 10 g/h of ozone.
(§3) A small pump was connected to the system with the ozone added to the liquid recycle line via a Mazzei gas to liquid injector capable of flow rates between 13.2-28.35 1pm@pressures ranging from 15-25 psi. Tests were run on ponds D4 (3 m^2 surface area), MP1 (3 m^2 surface area), and 25A (25 m^2 surface area) with salinities ranging from 20-24 ppt using flow rates of 13.2 and 15.6 1pm@20 psi. The ozonator is equipped with a variable transformer that offers the ability to vary ozone dosage between 0-100%. Tests were run at ozone concentrations of 25%, 50%, 75%, and 100% at flow rates of 13.2 and 15.6 1pm.
(§4) Nannochloropsis was unaffected by ozone at these dosages.
(§5) Using the skid mounted system as an in-situ transfer treatment to inoculate new ponds was also tested with very favorable results. Both D4 (3 m^2) and MP1 (3 m^2) were filled with ozone treated inoculums from one of the larger ponds that had large amounts of clumps and decreasing productivity. The effect of this was that most of the clumps (>80%) were broken up and the grazers present inside of the clumps were destroyed as well as free grazers and diatoms in the solution with no effect on Nannochloropsis.

[2] = system: Nannochloropsis; assay: Exposure of Nannochloropsis cultures to extremely high (shock) levels of ozone; conditions: above 30 milligrams/liter ozone, exposure not prolonged
Text: At alternative step 135, if the level or amount of predators and/or invaders exceeds an actual or desired level, the ozone concentration of the algae cultivation system may be adjusted by applying an effective “shock” amount of ozone. The ozone concentration of the algae cultivation system may be adjusted via the inlet stream that feeds into the algae cultivation system. Applying an effective shock amount of ozone to the inlet stream may result in an initial ozone concentration of the inlet stream above 10 milligrams/liter, which feeds into the algae cultivation system. An unexpected result observed via the experiments described herein is that Nannochloropsis cultures exposed to extremely high levels of ozone (above 30 milligrams/liter) recover (i.e., the Nannochloropsis cultures were not killed), provided the exposure to the ozone is not prolonged. […] Note: steps 130 and 135 may be performed in alternating or rotating fashion, provided the ozone concentration is properly observed.

[3] = system: diatoms; assay: Example Two: ozone skid tests on outdoor ponds, ozone disinfection of diatoms
Method: as §1, §2, §3, §4, §5

[4] = system: Nannochloropsis; assay: Example Two: ozone skid tests on outdoor ponds D4, MP1, 25A, Nannochloropsis productivity and resistance
Method: as §1, §2, §3
Productivity results of the three pond systems run at the high concentrations are listed below:
as §4, §5

[5] = system: ciliated protozoa grazers; assay: Example One: pond culture passed through ozone generator, effect on grazers; conditions: ozonator setting 50% (4.6 mg/L) or 100% (9.6 mg/L)
Method: as §1
(§6) Ozone was added to an algal cultivation system using a commercial ozone generator with accompanying liquid pump, venturi, and air dryer. The machine used was a small model capable of generating 10 grams of ozone per hour. The flow rate of liquid through the generator was about 16 liters per minute. At fifty percent (50%) of maximal ozone generation, the concentration of ozone in the liquid after one pass through the ozone generator was 4.6 mg/L, and at 100% was 9.6 mg/L.
(§7) Two three-square meter ponds were started by taking 500L of culture from a larger pond and passing it through the ozone generator once. One pond was started with the ozonator setting at 50%, the other pond was started with the ozonator setting at 100%. The original algal culture had numerous clumps of Nannochloropsis, cell debris, various diatoms, and some ciliated protozoa grazers.

[6] = system: diatoms; assay: Example One: pond culture passed through ozone generator, effect on diatoms; conditions: ozonator setting 50% (4.6 mg/L) or 100% (9.6 mg/L)
Method: as §1, §6, §7

[7] = system: Nannochloropsis; assay: Example One: pond culture passed through ozone generator, effect on Nannochloropsis
Method: as §1, §6, §7
The two algal cultures were allowed to grow for two days without dilution, but with nutrient addition to see whether the ozone treatment changed the production of biomass and the subsequent stability of the cultures. After two days of batch growth, each pond was diluted one third per day and recirculated each day through the ozone generator for 30 minutes. During this time period about 500L, or one volume equivalent was treated. As before, one pond was passed through the machine at 50% setting and one at 100% setting.

[8] = 3 m^2 ponds D4 and MP1, concentrations of ozone tested
[9] = 25 m^2 pond 25A, side stream treated
[10] = in-situ transfer treatment of inoculums for D4 and MP1

SMILES: O=[O+][O-] [Ozone, ozone]
- Effect of ozone exposure on grazers present [1, 8]: adversely affected after exposure to ozone resulting in their elimination
- Effect of ozone exposure on grazers [1, 9]: similarly affected
- Grazers inside of the clumps and free grazers in the solution [1, 10]: destroyed
- Outcome of Nannochloropsis cultures after extremely high levels of ozone [2]: recover
- Effect of ozone exposure on diatoms present [3, 8]: adversely affected after exposure to ozone resulting in their elimination
- Effect of ozone exposure on diatoms [3, 9]: similarly affected
- Free diatoms in the solution [3, 10]: destroyed
- Effect of ozone on Nannochloropsis ([4]; 3 m^2 ponds D4 and MP1, at these dosages): unaffected
- Clumping after exposure to ozone [4, 9]: clumping did not become as dramatic of a problem
- Productivity ([4]; Pond 25A (25 m^2), Jul. 09, 2008, total 5950 mg O3, 5615 liters recycled): 16.1 g/m^2/day
- Productivity ([4]; Pond 25A (25 m^2), Jul. 10, 2008, total 5950 mg O3, 5615 liters recycled): 4.6 g/m^2/day
- Productivity ([4]; Pond 25A (25 m^2), Jul. 11, 2008, total 5950 mg O3, 5615 liters recycled, pond temperature reached 39° C.): −8.3* g/m^2/day
- Productivity ([4]; Pond 25A (25 m^2), Jul. 12, 2008, total 5950 mg O3, 5615 liters recycled): 12.2 g/m^2/day
- Productivity ([4]; Pond 25A (25 m^2), Jul. 13, 2008, total 5950 mg O3, 5615 liters recycled): 10.7 g/m^2/day
- Productivity ([4]; Pond 25A (25 m^2), Jul. 14, 2008, total 5950 mg O3, 5615 liters recycled): 8.0 g/m^2/day
- Productivity ([4]; Pond D4 (3 m^2), Jul. 09, 2008, total 500 mg O3, 470 liters recycled): 15.4 g/m^2/day
- Productivity ([4]; Pond D4 (3 m^2), Jul. 10, 2008, total 500 mg O3, 470 liters recycled): 16.1 g/m^2/day
- Productivity ([4]; Pond D4 (3 m^2), Jul. 11, 2008, total 500 mg O3, 470 liters recycled): 16.0 g/m^2/day
- Productivity ([4]; Pond D4 (3 m^2), Jul. 12, 2008, total 500 mg O3, 470 liters recycled): 8.4 g/m^2/day
- Productivity ([4]; Pond D4 (3 m^2), Jul. 13, 2008, total 500 mg O3, 470 liters recycled): 12.2 g/m^2/day
- Productivity ([4]; Pond D4 (3 m^2), Jul. 14, 2008, total 500 mg O3, 470 liters recycled): 14.9 g/m^2/day
- Productivity ([4]; Pond MP1 (3 m^2), Jul. 09, 2008, total 500 mg O3, 470 liters recycled): 13.3 g/m^2/day
- Productivity ([4]; Pond MP1 (3 m^2), Jul. 10, 2008, total 500 mg O3, 470 liters recycled): 17.2 g/m^2/day
- Productivity ([4]; Pond MP1 (3 m^2), Jul. 11, 2008, total 500 mg O3, 470 liters recycled): 16.9 g/m^2/day
- Productivity ([4]; Pond MP1 (3 m^2), Jul. 12, 2008, total 500 mg O3, 470 liters recycled): 9.0 g/m^2/day
- Productivity ([4]; Pond MP1 (3 m^2), Jul. 13, 2008, total 500 mg O3, 470 liters recycled): 16.0 g/m^2/day
- Productivity ([4]; Pond MP1 (3 m^2), Jul. 14, 2008, total 500 mg O3, 470 liters recycled): 13.4 g/m^2/day
- Effect on Nannochloropsis [4, 10]: no effect
- Clumps broken up ([4]; in-situ transfer treatment: D4 and MP1 filled with ozone treated inoculums from a larger pond with large amounts of clumps): > 80%
- Clump formation after daily repeated exposure to ozone ([4]; small 3 m^2 ponds D4 and MP1): clumps did form in large numbers
- Grazers after one pass through the ozone generator [5]: killed
- Diatoms after one pass through the ozone generator [6]: killed
- Survival of Nannochloropsis after one pass through the ozone generator ([7]; 500L culture, one pass, ozonator setting 50% (4.6 mg/L) or 100% (9.6 mg/L)): only single cells of Nannochloropsis survived
- Ill effects from the ozone on Nannochloropsis ponds ([7]; both ponds (50% and 100% setting), daily 30 minute recirculation for three days): no ill effects
- Production of biomass above that of a control pond ([7]; both ponds (50% and 100% setting), recirculated 30 minutes per day through ozone generator for three days, diluted one third per day): 20%
- Clumps of Nannochloropsis after one pass through the ozone generator ([7]; one pass, ozonator setting 50% (4.6 mg/L) or 100% (9.6 mg/L)): completely broken up

From patent US20100196995A1, “Systems and methods for maintaining the dominance and increasing the biomass production of nannochloropsis in an algae cultivation system” (priority 2009, published 2010)
